The values below come from ChEMBL document CHEMBL4130375, “Design, synthesis and biological evaluation of 4-amidobenzimidazole acridine derivatives as dual PARP and Topo inhibitors for cancer therapy” (Eur J Med Chem, 2017).

One test relates to MCF7. The test is described as follows: cells. The settings on record: Homo sapiens, MCF7, 72 h.
Test [1] addresses Poly [ADP-ribose] polymerase 1 (Homo sapiens, UniProt P09874). As to the kind of experiment: Inhibition of PARP1 (unknown origin) assessed as reduction in biotinylated poly(ADP-ribose) incorporation on to histone protein by ELISA based colorimetric assay. (ELISA stands for enzyme-linked immunosorbent assay.)
Test [2] concerns the target DNA topoisomerase 2-alpha (Homo sapiens) (UniProt P11388). As to the kind of experiment: Inhibition of human topoisomerase-2 at 100 uM using supercoiled pBR322 DNA as substrate after 10 to 15 mins by ethidium bromide staining based electrophoresis method.
A further test has as its system HCT-116. As to the kind of experiment: Antiproliferative activity against human HCT116 cells expressing topoisomerase-1 after 72 hrs by MTT assay. The format is functional, cell-based. Particulars: HCT-116, 72 h. On the technique in general: Tetrazolium assays rely on reduction of a dye to a coloured formazan, in cell work by metabolically active cells.
For the next test, the system named is HCC1937. As to the kind of experiment: Antiproliferative activity against human HCC1937 cells harboring BRCA1 mutant after 72 hrs by MTT assay. The format is functional, cell-based. The settings on record: HCC1937, 72 h.

Calls of active or inactive are those of the source. The rule behind the calls is not given here.

Poly [ADP-ribose] polymerase 1, sequence (P09874 whole entry): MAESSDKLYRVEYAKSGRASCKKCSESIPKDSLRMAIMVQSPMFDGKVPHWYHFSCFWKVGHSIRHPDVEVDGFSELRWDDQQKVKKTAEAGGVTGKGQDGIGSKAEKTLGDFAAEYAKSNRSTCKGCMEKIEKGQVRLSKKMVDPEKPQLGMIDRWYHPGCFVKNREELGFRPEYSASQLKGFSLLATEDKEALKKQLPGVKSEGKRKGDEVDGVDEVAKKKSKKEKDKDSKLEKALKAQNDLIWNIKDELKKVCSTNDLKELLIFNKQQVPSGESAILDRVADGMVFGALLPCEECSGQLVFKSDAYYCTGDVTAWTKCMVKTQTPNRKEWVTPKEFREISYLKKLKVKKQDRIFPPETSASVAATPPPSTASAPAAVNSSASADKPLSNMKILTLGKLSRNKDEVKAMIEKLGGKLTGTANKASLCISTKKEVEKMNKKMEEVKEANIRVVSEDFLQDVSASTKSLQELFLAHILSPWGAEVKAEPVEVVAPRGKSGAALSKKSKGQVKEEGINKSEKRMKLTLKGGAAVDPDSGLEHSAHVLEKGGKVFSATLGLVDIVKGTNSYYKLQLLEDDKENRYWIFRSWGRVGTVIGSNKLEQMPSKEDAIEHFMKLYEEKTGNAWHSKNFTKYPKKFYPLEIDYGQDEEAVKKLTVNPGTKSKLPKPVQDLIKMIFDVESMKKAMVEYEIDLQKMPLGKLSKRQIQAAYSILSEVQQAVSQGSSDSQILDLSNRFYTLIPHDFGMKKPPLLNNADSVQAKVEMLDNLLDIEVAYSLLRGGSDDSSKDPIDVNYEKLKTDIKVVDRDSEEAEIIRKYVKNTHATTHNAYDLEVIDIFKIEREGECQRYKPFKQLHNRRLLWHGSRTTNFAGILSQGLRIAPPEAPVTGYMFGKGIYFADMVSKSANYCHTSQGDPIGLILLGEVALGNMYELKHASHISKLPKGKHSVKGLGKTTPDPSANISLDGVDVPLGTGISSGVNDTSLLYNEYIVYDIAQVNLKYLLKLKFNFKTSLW
DNA topoisomerase 2-alpha (Homo sapiens), sequence (P11388 whole entry): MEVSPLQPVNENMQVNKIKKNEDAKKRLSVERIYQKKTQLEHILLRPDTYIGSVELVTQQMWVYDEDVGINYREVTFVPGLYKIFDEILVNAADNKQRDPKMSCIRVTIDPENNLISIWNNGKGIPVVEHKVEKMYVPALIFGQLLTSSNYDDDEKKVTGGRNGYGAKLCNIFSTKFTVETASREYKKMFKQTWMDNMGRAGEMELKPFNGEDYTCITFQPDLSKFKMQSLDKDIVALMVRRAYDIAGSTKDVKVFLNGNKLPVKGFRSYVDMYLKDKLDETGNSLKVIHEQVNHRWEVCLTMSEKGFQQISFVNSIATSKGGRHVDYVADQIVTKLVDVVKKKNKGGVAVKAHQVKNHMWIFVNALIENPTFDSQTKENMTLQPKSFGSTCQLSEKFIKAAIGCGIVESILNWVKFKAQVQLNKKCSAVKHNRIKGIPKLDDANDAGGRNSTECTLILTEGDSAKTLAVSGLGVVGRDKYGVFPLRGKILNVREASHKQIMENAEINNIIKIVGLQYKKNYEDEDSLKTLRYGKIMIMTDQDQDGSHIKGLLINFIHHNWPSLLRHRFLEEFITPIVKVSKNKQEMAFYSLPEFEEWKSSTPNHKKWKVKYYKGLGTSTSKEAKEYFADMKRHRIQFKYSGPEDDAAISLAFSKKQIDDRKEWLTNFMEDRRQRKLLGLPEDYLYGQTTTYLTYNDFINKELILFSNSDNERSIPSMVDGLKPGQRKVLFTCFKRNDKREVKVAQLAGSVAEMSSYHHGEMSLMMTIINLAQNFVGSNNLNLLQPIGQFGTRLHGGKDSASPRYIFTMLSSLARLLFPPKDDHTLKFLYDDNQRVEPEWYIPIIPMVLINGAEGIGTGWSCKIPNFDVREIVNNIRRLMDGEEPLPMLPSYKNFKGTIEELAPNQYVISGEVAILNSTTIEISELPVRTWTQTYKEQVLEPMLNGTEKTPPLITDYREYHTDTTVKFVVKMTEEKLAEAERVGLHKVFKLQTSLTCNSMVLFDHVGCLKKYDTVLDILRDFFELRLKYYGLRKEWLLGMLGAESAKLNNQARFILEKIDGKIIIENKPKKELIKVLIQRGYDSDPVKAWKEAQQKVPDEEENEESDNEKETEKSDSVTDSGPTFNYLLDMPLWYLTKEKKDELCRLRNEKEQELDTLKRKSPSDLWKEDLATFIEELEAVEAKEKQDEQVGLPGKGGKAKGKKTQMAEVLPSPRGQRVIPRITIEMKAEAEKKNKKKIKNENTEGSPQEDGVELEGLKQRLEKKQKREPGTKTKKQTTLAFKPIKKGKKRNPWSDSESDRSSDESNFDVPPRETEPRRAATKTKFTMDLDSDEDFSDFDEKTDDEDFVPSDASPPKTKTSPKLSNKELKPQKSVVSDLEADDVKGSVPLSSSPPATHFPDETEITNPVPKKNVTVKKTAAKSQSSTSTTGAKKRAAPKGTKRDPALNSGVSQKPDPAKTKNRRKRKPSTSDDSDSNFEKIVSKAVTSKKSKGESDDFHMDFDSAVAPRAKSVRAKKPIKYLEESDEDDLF

One may read the IC50 as the concentration that inhibits the measured activity by half. `NC(=O)c1cccc2[nH]c(-c3ccccc3N)nc12`: the 50% inhibitory concentration (IC50) (with MCF7; in test [1]) was more than 50 µM each time.
With `NC(=O)c1cccc2[nH]c(-c3ccc(Nc4c5ccccc5nc5ccccc45)cc3)nc12`, the 50% inhibitory concentration (IC50) is 12 µM in the test with MCF7 and 0.09 µM in test [1]. The inhibition result in test [2] is “Active”.
As for `Cc1cccc2c(Nc3ccc(-c4nc5c(C(N)=O)cccc5[nH]4)cc3)c3ccccc3nc12`, the IC50 in the test on MCF7 amounted to 39.1 µM; in test [1], 0.14 µM. Further, the inhibition result in test [2] was “Active”.
For `NC(=O)c1cccc2[nH]c(-c3ccccc3Nc3c4ccccc4nc4ccccc34)nc12` the same measures were more than 50 µM, 1.99 µM and “Active”.
`c1ccc2[nH]c(-c3ccc(Nc4c5ccccc5nc5ccccc45)cc3)nc2c1` had an IC50 with MCF7 of 26.1 µM.
Consider `COc1ccc2nc3ccccc3c(Nc3cccc(-c4nc5c(C(N)=O)cccc5[nH]4)c3)c2c1`, for which the IC50 in the test with MCF7 stood at 45.3 µM; in test [1] it was 1.14 µM. The inhibition entry in test [2] is “Active”.
In the case of `COc1cc(NS(C)(=O)=O)ccc1Nc1c2ccccc2nc2ccccc12` [AMSACRINE], the concentration for half-maximal inhibition (IC50) is 3.89 µM in the test on HCT-116, 7.85 µM in the test on HCC1937 and 8.7 µM with MCF7.
As for `COc1cccc2c(Nc3cccc(-c4nc5c(C(N)=O)cccc5[nH]4)c3)c3ccccc3nc12`, the IC50 was found to be 25.8 µM with MCF7 and 0.97 µM in test [1]. For the same molecule, the inhibition result in test [2] was “Active”.
For the molecule `NC(=O)c1cccc2nc(-c3ccc(N)cc3)[nH]c12`, the IC50 with MCF7 was more than 50 µM; in test [1], 0.03 µM.
As to `Cc1ccc2nc3ccccc3c(Nc3cccc(-c4nc5c(C(N)=O)cccc5[nH]4)c3)c2c1`, the results for the IC50 (in the test on MCF7; in test [1]) were 29.6 µM and 0.51 µM, respectively. In addition, the inhibition entry in test [2] is “Active”.
Turning to `NC(=O)c1cccc2[nH]c(-c3cccc(N)c3)nc12`, the IC50 is more than 50 µM in the test on MCF7 and 0.03 µM in test [1].
`COc1ccc2nc3ccccc3c(Nc3ccc(-c4nc5c(C(N)=O)cccc5[nH]4)cc3)c2c1`: the IC50 with MCF7 amounted to 38.2 µM; in test [1], 0.25 µM. Besides, the inhibition result in test [2] was “Active”.
For the molecule `CCCCc1ccc2nc3ccccc3c(Nc3cccc(-c4nc5c(C(N)=O)cccc5[nH]4)c3)c2c1`, the figures for the 50% inhibitory concentration (IC50) (with MCF7; in test [1]) were more than 50 µM and 0.32 µM, respectively. In test [2], the inhibition entry is “Active”.
As to `NC(=O)c1cccc2[nH]c(-c3cccc(Nc4c5ccccc5nc5ccccc45)c3)nc12`, the half-maximal inhibitory concentration (IC50) in the test on MCF7 is 36.1 µM; in test [1], 1.39 µM.
`CCCCc1ccc2nc3ccccc3c(Nc3ccc(-c4nc5c(C(N)=O)cccc5[nH]4)cc3)c2c1`: the results for the concentration for half-maximal inhibition (IC50) (with MCF7; in test [1]) were more than 50 µM and 0.13 µM, respectively. In test [2], the inhibition entry was “Active”.
Consider `O=C(c1cc(Cc2n[nH]c(=O)c3ccccc23)ccc1F)N1CCN(C(=O)C2CC2)CC1` [OLAPARIB], for which the IC50 in the test on HCT-116 amounted to 15.1 µM; in the test with HCC1937, 4.97 µM; with MCF7 it was 36.2 µM.
As for `COc1cccc2c(Nc3ccc(-c4nc5c(C(N)=O)cccc5[nH]4)cc3)c3ccccc3nc12`, the IC50 with MCF7 was 13.2 µM; in test [1] it was 0.19 µM. For the same molecule, the inhibition result in test [2] was “Active”.
For `COc1ccc2nc3ccccc3c(Nc3ccccc3-c3nc4c(C(N)=O)cccc4[nH]3)c2c1` the same measures were 21.8 µM, 1.7 µM and “Active”.
Regarding `Cc1ccc2nc3ccccc3c(Nc3ccc(-c4nc5c(C(N)=O)cccc5[nH]4)cc3)c2c1`, the half-inhibitory concentration (IC50) was 39.3 µM in the test with MCF7 and 0.1 µM in test [1]. Besides, in test [2], the inhibition entry was “Active”.
